The target of one assay is T1, human FPR1 (Homo sapiens, UniProt P21462).
T1 sequence (P21462 1-350): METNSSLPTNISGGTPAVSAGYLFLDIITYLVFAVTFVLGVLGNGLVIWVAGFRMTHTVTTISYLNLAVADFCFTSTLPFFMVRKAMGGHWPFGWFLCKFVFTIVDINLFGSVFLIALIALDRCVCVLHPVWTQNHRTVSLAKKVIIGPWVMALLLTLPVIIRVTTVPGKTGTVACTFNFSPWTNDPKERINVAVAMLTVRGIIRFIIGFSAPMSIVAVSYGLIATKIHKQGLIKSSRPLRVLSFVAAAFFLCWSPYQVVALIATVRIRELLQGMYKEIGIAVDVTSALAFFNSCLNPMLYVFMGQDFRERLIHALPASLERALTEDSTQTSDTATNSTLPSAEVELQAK
Kind of assay: FPR1 cyclic adenosine monophosphate (cAMP) assay. The settings on record: CHO cells overexpressing human FPR1; forskolin 10 μM; inhibition of cAMP production; HTRF; read-out: hFPR1 cAMP2 EC50. The class given is cell-based. The essentials: (§1)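 CHO cells overexpressing human FPR1 (4,000/well) or FPR2 (2,000/well) were incubated 30 min at room temperature with compound (0.020 nM to 100 μM, 1% DMSO), IBMX 200 μM, and forskolin at 10 μM (FPR1) or 5 μM (FPR2), all final. HTRF cAMP read-out; inhibition fitted by 4-parameter logistic equation.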
In general terms: cAMP levels reflect the balance of adenylyl cyclase and phosphodiesterase activity.

In the next assay the target is T2, human FPR2 (Homo sapiens, UniProt P25090).
T2 sequence (P25090 1-351): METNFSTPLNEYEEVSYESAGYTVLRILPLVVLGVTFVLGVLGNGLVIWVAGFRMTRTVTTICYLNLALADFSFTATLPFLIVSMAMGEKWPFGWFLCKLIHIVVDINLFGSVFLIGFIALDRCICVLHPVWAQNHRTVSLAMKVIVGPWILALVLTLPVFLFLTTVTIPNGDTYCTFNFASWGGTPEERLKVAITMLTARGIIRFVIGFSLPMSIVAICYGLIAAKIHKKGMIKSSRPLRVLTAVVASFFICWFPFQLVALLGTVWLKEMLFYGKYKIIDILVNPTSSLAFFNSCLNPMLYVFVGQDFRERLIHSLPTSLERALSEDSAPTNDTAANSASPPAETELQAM
Kind of assay: FPR2 cyclic adenosine monophosphate (cAMP) assay. The class given is cell-based. The settings on record: CHO cells overexpressing human FPR2; forskolin 5 μM; inhibition of cAMP production; HTRF; read-out: hFPR2 cAMP2 EC50. An outline of the steps:
as §1

The structures appear in SMILES notation.

The EC50 is the concentration needed to bring the measured effect to its halfway point. As to `COc1cc(F)c(-c2c(NC(=O)c3ccc(OC(F)F)cc3)c(=O)n(-c3cc(OC(C)C)cc(OCC(C)(C)O)n3)n2C)c(F)c1` [Example 377, N-(5-(2,6-Difluoro-4-methoxyphenyl)-2-(6-(2-hydroxy-2-methylpropoxy)-4-isopropoxypyridin-2-yl)-1-methyl-3-oxo-2,3-dihydro-1H-pyrazol-4-yl)-4-(difluoromethoxy)benzamide], the EC50 amounted to 470 nM on human FPR1 and 8 nM on human FPR2.
Consider `COc1cc(OCCC(C)(C)O)nc(-n2c(=O)c(NC(=O)c3ccc(OC(F)F)cc3)c(-c3c(F)cc(OC)cc3F)n2C)c1` [Example 379, N-(5-(2,6-Difluoro-4-methoxyphenyl)-2-(6-(3-hydroxy-3-methylbutoxy)-4-methoxypyridin-2-yl)-1-methyl-3-oxo-2,3-dihydro-1H-pyrazol-4-yl)-4-(difluoromethoxy)benzamide], for which the EC50 is > 10000 nM on human FPR1 and 7 nM on human FPR2.
On the same counts, the results for `COc1cc(OCC(O)C(F)(F)F)nc(-n2c(=O)c(NC(=O)c3ccc(OC(F)F)cc3)c(-c3c(F)cc(OC)cc3F)n2C)c1` (stereo not drawn) [Example 380, N-(5-(2,6-Difluoro-4-methoxyphenyl)-2-(4-methoxy-6-(3,3,3-trifluoro-2-hydroxypropoxy)pyridin-2-yl)-1-methyl-3-oxo-2,3-dihydro-1H-pyrazol-4-yl)-4-(difluoromethoxy)benzamide] are 2300 nM and 2 nM.
In the case of `COc1cc(OC(CO)C(F)(F)F)nc(-n2c(=O)c(NC(=O)c3ccc(OC(F)F)cc3)c(-c3c(F)cc(OC)cc3F)n2C)c1` (stereo not drawn) [Example 381, N-(5-(2,6-Difluoro-4-methoxyphenyl)-2-(4-methoxy-6-((1,1,1-trifluoro-3-hydroxypropan-2-yl)oxy)pyridin-2-yl)-1-methyl-3-oxo-2,3-dihydro-1H-pyrazol-4-yl)-4-(difluoromethoxy)benzamide], the values for the EC50 at human FPR1 and at human FPR2 were 1900 nM and 2 nM, respectively.
Regarding `COCC(CO)Oc1cc(OC)cc(-n2c(=O)c(NC(=O)c3ccc(OC(F)F)cc3)c(-c3c(F)cc(OC)cc3F)n2C)n1` (stereo not drawn) [Example 382, N-(5-(2,6-Difluoro-4-methoxyphenyl)-2-(6-((1-hydroxy-3-methoxypropan-2-yl)oxy)-4-methoxypyridin-2-yl)-1-methyl-3-oxo-2,3-dihydro-1H-pyrazol-4-yl)-4-(difluoromethoxy)benzamide], the half-maximal effective concentration (EC50) on human FPR1 is > 10000 nM; at human FPR2 it was 8 nM.
Consider `COc1cc(OCC(O)C(F)(F)F)nc(-n2c(=O)c(NC(=O)c3ccc(OC(F)F)cc3)c(-c3c(F)cc(OC)cc3F)n2C)c1` (stereo not drawn) [Example 383, N-(5-(2,6-Difluoro-4-methoxyphenyl)-2-(4-methoxy-6-(3,3,3-trifluoro-2-hydroxypropoxy)pyridin-2-yl)-1-methyl-3-oxo-2,3-dihydro-1H-pyrazol-4-yl)-4-(difluoromethoxy)benzamide], for which the EC50 at human FPR1 worked out at 2500 nM; on human FPR2 it was 1 nM.
Consider `COc1cc(OCC2(CO)COC2)nc(-n2c(=O)c(NC(=O)c3ccc(OC(F)F)cc3)c(-c3c(F)cc(OC)cc3F)n2C)c1` [Example 384, N-(5-(2,6-Difluoro-4-methoxyphenyl)-2-(6-((3-(hydroxymethyl)oxetan-3-yl)methoxy)-4-methoxypyridin-2-yl)-1-methyl-3-oxo-2,3-dihydro-1H-pyrazol-4-yl)-4-(difluoromethoxy)benzamide], for which the EC50 was > 10000 nM on human FPR1 and 7 nM on human FPR2.
`COc1cc(OCC(C)(C)F)nc(-n2c(=O)c(NC(=O)c3ccc(OC(F)F)cc3)c(-c3c(F)cc(OC)cc3F)n2C)c1` [Example 385, N-(5-(2,6-Difluoro-4-methoxyphenyl)-2-(6-(2-fluoro-2-methylpropoxy)-4-methoxypyridin-2-yl)-1-methyl-3-oxo-2,3-dihydro-1H-pyrazol-4-yl)-4-(difluoromethoxy)benzamide]: the EC50 at human FPR1 was > 10000 nM; on human FPR2 it was 3 nM.
On the same counts, the results for `COCC(CO)Oc1cc(OC)cc(-n2c(=O)c(NC(=O)c3ccc(OC(F)F)cc3)c(-c3c(F)cc(OC)cc3F)n2C)n1` (stereo not drawn) [Example 386, N-(5-(2,6-Difluoro-4-methoxyphenyl)-2-(6-((1-hydroxy-3-methoxypropan-2-yl)oxy)-4-methoxypyridin-2-yl)-1-methyl-3-oxo-2,3-dihydro-1H-pyrazol-4-yl)-4-(difluoromethoxy)benzamide] are > 10000 nM and 9 nM.
Consider `COc1cc(OCC(C)(F)F)nc(-n2c(=O)c(NC(=O)c3ccc(OC(F)F)cc3)c(-c3c(F)cc(OC)cc3F)n2C)c1` [Example 387, N-(5-(2,6-Difluoro-4-methoxyphenyl)-2-(6-(2,2-difluoropropoxy)-4-methoxypyridin-2-yl)-1-methyl-3-oxo-2,3-dihydro-1H-pyrazol-4-yl)-4-(difluoromethoxy)benzamide], for which the EC50 at human FPR1 was > 10000 nM; on human FPR2, 8 nM.
As to `COc1cc(F)c(-c2c(NC(=O)c3ccc(OC(F)F)cc3)c(=O)n(-c3ccc(OCCO)cn3)n2C)c(F)c1` [Example 388, N-(5-(2,6-Difluoro-4-methoxyphenyl)-2-(5-(2-hydroxyethoxy)pyridin-2-yl)-1-methyl-3-oxo-2,3-dihydro-1H-pyrazol-4-yl)-4-(difluoromethoxy)benzamide], the figures for the EC50 at human FPR1 and at human FPR2 were 3600 nM and 4 nM, respectively.
With `COc1cc(OCC(F)(F)F)nc(-n2c(=O)c(NC(=O)c3ccc(OC(F)F)cc3)c(-c3c(F)cc(OC)cc3F)n2C)c1` [Example 389, N-(5-(2,6-Difluoro-4-methoxyphenyl)-2-(4-methoxy-6-(2,2,2-trifluoroethoxy)pyridin-2-yl)-1-methyl-3-oxo-2,3-dihydro-1H-pyrazol-4-yl)-4-(difluoromethoxy)benzamide], the results for the EC50 at human FPR1 and on human FPR2 were 4500 nM and 6 nM, respectively.
With `COc1cc(OC(CO)C(F)(F)F)nc(-n2c(=O)c(NC(=O)c3ccc(OC(F)F)cc3)c(-c3c(F)cc(OC)cc3F)n2C)c1` (stereo not drawn) [Example 390, N-(5-(2,6-Difluoro-4-methoxyphenyl)-2-(4-methoxy-6-((1,1,1-trifluoro-3-hydroxypropan-2-yl)oxy)pyridin-2-yl)-1-methyl-3-oxo-2,3-dihydro-1H-pyrazol-4-yl)-4-(difluoromethoxy)benzamide], the 50% effective concentration (EC50) on human FPR1 was determined as 2200 nM; at human FPR2, 10 nM.
Consider `COc1cc(F)c(-c2c(NC(=O)c3ccc(OC(F)F)cc3)c(=O)n(-c3cc(OCC4CCCO4)cc(C)n3)n2C)c(F)c1` (stereo not drawn) [Example 391, N-(5-(2,6-Difluoro-4-methoxyphenyl)-1-methyl-2-(6-methyl-4-((tetrahydrofuran-2-yl)methoxy)pyridin-2-yl)-3-oxo-2,3-dihydro-1H-pyrazol-4-yl)-4-(difluoromethoxy)benzamide], for which the EC50 on human FPR1 was determined as 240 nM; on human FPR2 it was 6 nM.
Regarding `COc1cc(F)c(-c2c(NC(=O)c3ccc(OC(F)F)cc3)c(=O)n(-c3cccc(OCC(C)(C)O)n3)n2C)c(F)c1` [Example 392, N-(5-(2,6-Difluoro-4-methoxyphenyl)-2-(6-(2-hydroxy-2-methylpropoxy)pyridin-2-yl)-1-methyl-3-oxo-2,3-dihydro-1H-pyrazol-4-yl)-4-(difluoromethoxy)benzamide], the EC50 at human FPR1 worked out at 830 nM; at human FPR2, 22 nM.
With `COc1cc(F)c(-c2c(NC(=O)c3ccc(OC(F)F)cc3)c(=O)n(-c3cc(OCC(C)O)cc(C)n3)n2C)c(F)c1` (stereo not drawn) [Example 393, N-(5-(2,6-Difluoro-4-methoxyphenyl)-2-(4-(2-hydroxypropoxy)-6-methylpyridin-2-yl)-1-methyl-3-oxo-2,3-dihydro-1H-pyrazol-4-yl)-4-(difluoromethoxy)benzamide], the EC50 at human FPR1 worked out at 2800 nM; on human FPR2, 15 nM.
For the compound `COc1cc(F)c(-c2c(NC(=O)c3ccc(OC(F)F)cc3)c(=O)n(-c3cc(OCC(C)O)cc(C)n3)n2C)c(F)c1` (stereo not drawn) [Example 394, N-(5-(2,6-Difluoro-4-methoxyphenyl)-2-(4-(2-hydroxypropoxy)-6-methylpyridin-2-yl)-1-methyl-3-oxo-2,3-dihydro-1H-pyrazol-4-yl)-4-(difluoromethoxy)benzamide], the EC50 on human FPR1 amounted to 740 nM; on human FPR2, 5 nM.
As for `COc1cc(F)c(-c2c(NC(=O)c3ccc(OC(F)F)cc3)c(=O)n(-c3cccn(C)c3=O)n2C)c(F)c1` [Example 395, N-(5-(2,6-Difluoro-4-methoxyphenyl)-1-methyl-2-(1-methyl-2-oxo-1,2-dihydropyridin-3-yl)-3-oxo-2,3-dihydro-1H-pyrazol-4-yl)-4-(difluoromethoxy)benzamide], the values for the EC50 on human FPR1 and on human FPR2 were > 10000 nM and 61 nM, respectively.

Source of the values: patent publication US12577206B2 (BRISTOL-MYERS SQUIBB COMPANY, priority 2020, dated 2026).
